One may read the melting point as the temperature of the solid-liquid transition.

The results in this text go back to patent publication US7060822B1, “2-pyrazolin-5-ones” (Abbott GmbH & Co. KG, priority 1999, dated 2006).

The compound `Cn1cc(C=C2C(=O)NN=C2Nc2ccc(F)cc2)c2ccccc21` [Example 296, 3-(4-Fluorophenylamino)-4-[(1-methylindol-3-yl)methylene]-2-pyrazolin-5-one] returned a melting point of 218 to 219 °C.
In the case of `CC(C)OC1=NNC(=O)C1=Cc1ccc(-c2ccccc2)[nH]1` [Example 76, 3-Isopropoxy-4-[(5-phenylpyrrol-2-yl)methylene]-2-pyrazolin-5-one] it was 212 to 214 °C; in that of `CC1(C)C(C2=NNC(=O)C2=Cc2ccc[nH]2)C1(C)C` [Example 60, 4-[(Pyrrol-2-yl)methylene]-3-(2,2,3,3-tetramethylcyclopropyl)-2-pyrazolin-5-one], 160 to 162 °C; in that of `CC(CC1=NNC(=O)C1=Cc1ccc[nH]1)c1ccccc1` (centres unmarked) [Example 25, 3-(2-Phenylpropyl)-4-[(pyrrol-2-yl)methylene]-2-pyrazolin-5-one], 130 to 131 °C.
With `O=C1NN=C(C2CC2)C1=Cc1cccn1CCCCO` [Example 81, 3-Cyclopropyl-4-{[1-(4-hydroxybutyl)pyrrol-2-yl]methylene]-2-pyrazolin-5-one] the figure was 134 to 136 °C; with `Cc1cccc2c(C=C3C(=O)NN=C3OC(C)C)c[nH]c12` [Example 245, 3-Isopropoxy-4-[(7-methylindol-3-yl)methylene]-2-pyrazolin-5-one], 254 to 256 °C; with `Cn1cc(C=C2C(=O)NN=C2NC2CC2)c2ccccc21` [Example 292, 3-Cyclopropylamino-4-[(1-methylindol-3-yl)methylene]-2-pyrazolin-5-one], 160 to 164 °C (dec.).
In the case of `CCOC1=NNC(=O)C1=Cc1ccc(C)[nH]1` [Example 46, 3-Ethoxy-4-[(5-methylpyrrol-2-yl)methylene]2-pyrazolin-5-one] it was 197 to 199 °C; in that of `CC(C)OC1=NNC(=O)C1=Cc1ccc[nH]1` [Example 11, 3-Isopropoxy-4-[(pyrrol-2-yl)methylene]-2-pyrazolin-5-one], 172 to 174 °C; in that of `O=C1NN=C(COc2ccc(-c3ccccc3)cc2)C1=Cc1ccc[nH]1` [Example 24, 3-(4-Phenylphenyloxymethyl)-4-[(pyrrol-2-yl)methylene]-2-pyrazolin-5-one], 192 to 194 °C.
For the compound `O=C1NN=C([C@@H]2C[C@H]2c2ccccc2)C1=Cc1ccc[nH]1` (relative stereo) [Example 106, 3-(trans-2-phenylcyclopropyl)-4-[(pyrrol-2-yl)methylene]-2-pyrazolin-5-one], the melting point was in the range of 173 to 175 °C.
In the case of `CC(C)C1=NNC(=O)C1=Cc1ccc[nH]1` [Example 105, 3-Isopropyl-4-[(pyrrol-2-yl)methylene]-2-pyrazolin-5-one] it was 120 to 122 °C; in that of `Cc1ccc(OCC2=NNC(=O)C2=Cc2c[nH]c3ccccc23)cc1` [Example 216, 4-[(Indol-3-yl)methylene]-3-(4-methylphenyloxymethyl)-2-pyrazolin-5-one], 288 to 291 °C.
In the case of `CCOC(=O)c1c[nH]c(C=C2C(=O)NN=C2OCC)c1C(=O)OCC` [Example 147, 4-[(3,4-Di(ethoxycarbonyl)pyrrol-2-yl)methylene]-3-ethoxy-2-pyrazolin-5-one] it was 132 to 134 °C.
With `O=C1NN=C(Cc2ccc(O)cc2)C1=Cc1c[nH]c2ccccc12` [Example 228, 3-(4-hydroxybenzyl)-4-[(indol-3-yl)methylene]-2-pyrazolin-5-one] the figure was 295 to 300 °C; with `Cc1cc(C(C)C)c(C=C2C(=O)NN=C2c2cnccn2)[nH]1` [Example 197, 4-[(3-Isopropyl-5-methylpyrrol-2-yl)methylene]-3-pyrazinyl-2-pyrazolin-5-one], 244 °C; with `O=C1NN=C(c2cnccn2)C1=Cc1cc(CN2CCC(Cc3ccccc3)CC2)c[nH]1` [Example 180, 4-{[4-(4-Benzylpiperidino)methylpyrrol-2-yl]methylene}-3-pyrazinyl-2-pyrazolin-5-one], 211 to 214 °C.
